Experimental data from patent US11458114B2, “Methods and compositions for enhancing synthesis secretion and transport of collagen to increase wound strength” (NORTH CELL PHARMACEUTICALS, INC., priority 2020, dated 2022).
“Also recorded” adds a separate entry of the source. Like-named read-outs stand apart in the source and are kept apart here.

Columns and labels:
wounds = assay: Various drugs administered on wounds with or without sodium pyruvate or SRF: erythema rating and days to total re-epithelization; conditions: for Drugs in commercial formula with SRF erythema / Drugs in commercial formula with sodium pyruvate only erythema / Drugs in commercial formula erythema: Rating 1-10, 1 most erythema, 10 no erythema; for Drugs in commercial formula erythema / Drug in commercial formula Days to healing: drug alone; for Drug in commercial formula with SRF. Days to healing / Drug in commercial formula with sodium pyruvate only. Days to healing / Drug in commercial formula Days to healing: days to total re-epithelization
Description: (§1) All previous studies using pyruvate to treat wounds or be used as an antioxidant used only the sodium salt form of pyruvic acid. The drug products that were tested in previous studies used 1-3% sodium pyruvate and other sodium salts of alpha keto acids by weight 1-3% concentrations in the lotions and triple antibiotic formulations. […]

virally infected cells = assay: Viral plaque formation in virally infected cells; assay type: cell-based
Text: A commercial cold sore formula was purchased and the enumerated keto acids were placed into it to treat cold sores, both as a combination and singly as well. The commercial formulation by itself was utilized as a control. […] However, when SRF was placed in the cold sore formulation both with and without anti-oxidants and fatty acids, they heal the cold sore at a much faster rate 10-40% when tested on a cold sore sufferer The same experiment was done with virally infected cells and the combination of pyruvate and α-Ketoisovalerate with SRF decreased viral plaque formation by 50%. Viral plaques are a direct measure of viral numbers in infected cells. […] Other antivirals were evaluated with SRF to determine if the addition of SRF could reduce the skin irritation produced by Foscarnet sodium, Ribavirin, imiquimod, vidarabine, ganciclovir sodium, zidovudine, phenol, amantadine hydrochloride, and interferon. alpha.-n3. Even though some of these anti virals are not effective against a cold sore, they were evaluated on human cold sores to determine if SRF could reduce the irritation and enhance healing at the infection site. All formula with SRF healed cold sore two days faster than non-treatments and when this formula was combined with antiviral, like acyclovir or docosonal, the viral lesions healed 1.5 days faster than the commercial antiviral agent alone (Abreva or acyclovir). […]

HSV-1 or 2 = assay: Viral plaques in virally infected cells, HSV; assay type: cell-based
Text: Results: The primary end points were the levels of IL-8 and IL-1 after treatment with an immunostimulators, and SRF. […] IL-8 activates neutrophils to increase their numbers at the infected site. […] IL-1 increases inflammation and decreases healing times. […] The same experiment was done with virally infected cells and the SRF in combination with immunostimulators decreased viral plaque formed by HSV-1 or 2 by 70% and HPV-18 decreased by 82%. Viral plaques are a direct measure of viral numbers in infected cells.

[1] = test system: skin laser wounds in patients; assay: Salts of pyruvate and SRF on skin laser wounds in patients: healing and irritation
Description: as §1

[2] = test system: Doxorubicin treated wounded hairless rats; assay: Rat wound strength healing study, doxorubicin-impaired wounds; assay type: in vivo; conditions: for Days to healing: Doxorubicin treated wounded hairless rats, topical, 2% pyruvate salts, 1% L proline, 1% L-citrulline; for Percentage of wound breaking strength, by day 21: compared to non-wounded normal skin (100%)
Description: Wound breaking strength is a measurement of wound strength after injury compared to normal noninjuried skin. Fourteen groups of five rats each were studied. The SRF was administered topically daily. All groups were wounded at postoperative day 0, at which time Doxo was given to all Groups. All wounds were harvested at POD 21, and the mean wound breaking strength (WBS) of each group was obtained using an Instron Tensiometer.

wounded hairless Rats = assay: Nitric oxide production and days to healing in wounded hairless rats; assay type: in vivo, rat; conditions: topical
[3] = test system: cultured human dermal fibroblasts; assay: Procollagen production in cultured human dermal fibroblasts (ELISA); assay type: cell-based
[4] = test system: UVB-induced wrinkle formation; assay: Topical alpha-ketoglutarate on UVB-induced wrinkle formation; assay type: in vivo, human; conditions: 1% topical, 6 weeks
[5] = Amount of salts delivered in the pyruvate formulations compared to amounts in human blood; conditions: amount delivered in the pyruvate formulation
cold sores = assay: Cold sore treatment, 15 subjects; conditions: human, in vivo
tumors = assay: SRF given 1-2 hours prior to 3-bromopyruvate: tumor size; assay type: in vivo; conditions: 3 bromopyruvate by itself
Description: To date most patients with cancer that are treated with radiation or cancer drugs show a partial reduction of tumor sizes, but in most cases the cancer remains and life expectances increases for a short period of time. This is the case for tumors. Five patients with various cancers were treated with 3-Bromopyruvate, an alkylating agent and a well-known inhibitor of energy metabolism. Results to date have been mixed. The problem with most cancer drugs is not only their toxicity to noncancerous tissue, but is their inability to completely eradicate the cancer. Cancer drugs cause hypoxia in normal noncancerous cells and they destroy tissue and their ability to heal. In mice studies conducted by others, they investigated the chemo preventive activity of 3-bromopyruvate. For the topical treatment the mice were treated with 10-30 mg/5 ml daily and treated for 8 weeks. […] 3-Bromopyruvate also dissociated hexokinase II from mitochondria, reduced hexokinase activity, and blocked energy metabolism in cancer cells, finally triggered cancer cell death and induced apoptosis through caspase-3, and PARP in human lung cancer cell line. The problem with 3-bromopyruvate was its toxicity to normal cells. The formula needed to protect noncancerous cells from 3-bromopyruvate and to enhance its effect on tumors, was the addition of SRF 1-2 hours prior to the administration of the 10 mg of 3-bromopyruvate. […]

non-cancerous cells = assay: Viable non-cancerous cells after incubation with anticancer drugs in various media; assay type: cell-based; set-up: Percentage of viable cells, Drugs in commercial formula with SRF: concentration or dose not given beside the values
[6] = test system: laser wounds on the left arm; assay: Pigmentation study on laser wounds; assay type: in vivo; conditions: range 1-10, 10 totally normal
Text: Six laser wounds were made on the left arm. As an example, Mupirocin was placed on the first wound site, Mupirocin plus sodium pyruvate was placed on the second wound site and Mupirocin with SRF was placed on third wound site. The same process was repeated with another drug for sites 4-6. Every two days the bandages coated with the drugs were removed and replaced five times. Pigmentation measurements range from 1-10 with 10 being totally normal. The mupirocin drug formulas averaged a 4.9 for pigmentation. […]. The addition of the SRF averaged 7.45 a […] increase in pigmentation.

HPV 16 or 18 = assay: Viral plaque reduction, patients with vaginal HPV treated with SRF cream containing imiquimod; conditions: human, in vivo
Description: Percentage of Viral Plaque Reduction in Virally Infected Cells in Humans
A total of 15 patients with vaginal HPV 16 or 18 were treated with the SRF cream that also contained imiquimod. […] SRF reduces viral plaques in virally infected cells by 22-34%. Unexpectedly, the combination of SRF and Imiquimod produced the best results, by reducing the viral plaques over 92%, eliminating the virus from most of the infected cells. This tissue culture data along with data from humans, confirms that this combination worked.

[7] = same concentration of pyruvate for each salt, compared with sodium pyruvate formulations or base

Question: What does the source list for `Nc1nc2c(ncn2COCCO)c(=O)[nH]1` [Acyclovir]?
Answer: Drugs in commercial formula with SRF erythema (wounds): 7; Drugs in commercial formula with sodium pyruvate only erythema (wounds): 5; Drugs in commercial formula erythema (wounds): 4; Drug in commercial formula with SRF. Days to healing (wounds): 10 days; Drug in commercial formula with sodium pyruvate only. Days to healing (wounds): 13 days; Drug in commercial formula Days to healing (wounds): 18 days; decrease of viral plaque formation (virally infected cells): 60%; decreased viral HSV plaques (HSV-1 or 2): 60%

Question: For `CC(=O)C(=O)[O-].[Na+]` [sodium salt of pyruvic acid, sodium pyruvate], which irritation or toxicity ([1]; human, in vivo) is on record?
Answer: no irritation

Question: And the wound healing results [1, 7]?
Answer: enhanced healing

Question: With Magnesium pyruvate as the compound, how does the Days to healing [2] read?
Answer: 14 days

Question: And the “Percentage of wound breaking strength, by day 21” value [2]?
Answer: 44%

Question: And the wound healing results ([1]; human, in vivo)?
Answer: slight increases in healing; also recorded: did not produce increases in healing over the base

Question: What about the “% of NO levels against normal nonwounded skin” value (wounded hairless Rats) of the same compound?
Answer: 36%

Question: And the Days to healing (wounded hairless Rats)?
Answer: 13 days

Question: Which results are given for Calcium pyruvate?
Answer: Days to healing [2]: 14 days; Percentage of wound breaking strength, by day 21 [2]: 42%; % of NO levels against normal nonwounded skin (wounded hairless Rats): 22%; Days to healing (wounded hairless Rats): 15 days

Question: With `O=C(O)CCC(=O)C(=O)O` [alpha-ketoglutarate] as the compound, how does the stimulated procollagen production ([3]; 10 microM, compared to vehicle (dH(2)O)-treated control cells) read?
Answer: 25.6+/−4.6%

Question: What about the activities of prolidase ([3]; fibroblasts) of the same compound?
Answer: increased

Question: And the wrinkle formation [4]?
Answer: decreased wrinkle formation

Question: Which irritation or toxicity ([1]; human, in vivo) does the source give for `CC(=O)C(=O)[O-].[Li+]` [lithium pyruvate] here?
Answer: irritating and possibly toxic

Question: And the wound healing results [1, 7]?
Answer: slight increases in healing; also recorded: did not produce increases in healing over the base

Question: Which results are given for zinc pyruvate?
Answer: wound healing results [1, 7]: slight increases in healing; also recorded: did not produce increases in healing over the base; irritation or toxicity ([1]; skin): irritating and possibly toxic; delivered salt relative to blood levels [5]: 840 × blood levels

Question: Which “cold sore efficacy, lesion healing” value (cold sores) does the source give for `CCCCCCCCCCCCCCCCCCCCCCO` [docosonal] here?
Answer: better efficacy with the addition of SRF

Question: What does the source list for `CC(=O)C(=O)O.N` [ammonium pyruvate]?
Answer: irritation or toxicity ([1]; human, in vivo): irritating and possibly toxic; wound healing results [1, 7]: slight increases in healing; also recorded: did not produce increases in healing over the base

Question: For `Oc1ccccc1` [phenol], which “cold sore efficacy, lesion healing” value (cold sores) is on record?
Answer: did not work very well

Question: For `O=C(O)C(=O)CBr` [3-bromopyruvate], which “reduction of tumor sizes” value (tumors) is on record?
Answer: 60%

Question: Which “impaired normal wound strength by” value ([2]; Doxo 6 mg/kg i.v., POD 21) does the source give for `COc1cccc2c1C(=O)c1c(O)c3c(c(O)c1C2=O)C[C@@](O)(C(=O)CO)C[C@@H]3O[C@H]1C[C@H](N)[C@H](O)[C@H](C)O1` [Doxorubicin] here?
Answer: 40%

Question: For `CN(Cc1cnc2nc(N)nc(N)c2n1)c1ccc(C(=O)N[C@@H](CCC(=O)O)C(=O)O)cc1` [methotrexate], which “Percentage of viable cells, Drugs in commercial formula” value (non-cancerous cells) is on record?
Answer: 43%

Question: And the “Percentage of viable cells, Drugs in commercial formula sodium pyruvate without SRF” value (non-cancerous cells)?
Answer: 68%

Question: What about the “Percentage of viable cells, Drugs in commercial formula with SRF” value (non-cancerous cells) of the same compound?
Answer: 94%

Question: What about the “Percentage of viable cells after incubation with drugs” value (non-cancerous cells; drug) of the same compound?
Answer: 42%

Question: What about the “Percentage of viable cells, Drugs in commercial formula with SRF repeat study” value (non-cancerous cells; repeat study) of the same compound?
Answer: 98%

Question: With `C/C(=C\C(=O)OCCCCCCCCC(=O)O)C[C@@H]1OC[C@H](C[C@@H]2O[C@H]2[C@@H](C)[C@H](C)O)[C@@H](O)[C@H]1O` [Mupirocin] as the compound, how does the “Drugs in commercial formula with SRF erythema” value (wounds) read?
Answer: 8

Question: What about the “Drugs in commercial formula with sodium pyruvate only erythema” value (wounds) of the same compound?
Answer: 6

Question: And the “Drugs in commercial formula erythema” value (wounds)?
Answer: 4

Question: What about the “Drug in commercial formula with SRF. Days to healing” value (wounds) of the same compound?
Answer: 11 days

Question: And the “Drug in commercial formula with sodium pyruvate only. Days to healing” value (wounds)?
Answer: 15 days

Question: What about the “Drug in commercial formula Days to healing” value (wounds) of the same compound?
Answer: 20 days

Question: And the Pigmentation measurement [6]?
Answer: 4.9

Question: With `CC(C)Cn1cnc2c(N)nc3ccccc3c21` [Imiquimod] as the compound, how does the “reduction of viral plaques in virally infected cells” value (HPV 16 or 18) read?
Answer: 25-40%

Question: Which wound healing results [1, 7] does the source give for manganese pyruvate here?
Answer: slight increases in healing; also recorded: did not produce increases in healing over the base

Question: For aluminum pyruvate, which wound healing results [1, 7] is on record?
Answer: slight increases in healing; also recorded: did not produce increases in healing over the base

Question: What does the source list for `CC(C)(C#N)c1cc(Cn2cncn2)cc(C(C)(C)C#N)c1` [anastrozole]?
Answer: Percentage of viable cells after incubation with drugs (non-cancerous cells): 24%; Percentage of viable cells, Drugs in commercial formula (non-cancerous cells): 25%; Percentage of viable cells, Drugs in commercial formula sodium pyruvate without SRF (non-cancerous cells): 50%; Percentage of viable cells, Drugs in commercial formula with SRF (non-cancerous cells): 86%; Percentage of viable cells, Drugs in commercial formula with SRF repeat study (non-cancerous cells): 94%

Question: Which results are given for `N.N.O=C([O-])C1(C(=O)[O-])CCC1.[Pt+2]` [Carboplatin]?
Answer: Percentage of viable cells, Drugs in commercial formula (non-cancerous cells): 50%; Percentage of viable cells, Drugs in commercial formula sodium pyruvate without SRF (non-cancerous cells): 56%; Percentage of viable cells, Drugs in commercial formula with SRF (non-cancerous cells): 87%; Percentage of viable cells after incubation with drugs (non-cancerous cells; drug): 42%; Percentage of viable cells, Drugs in commercial formula with SRF repeat study (non-cancerous cells; repeat study): 97%

Question: Which “Percentage of viable cells, Drugs in commercial formula” value (non-cancerous cells) does the source give for Bleomycin here?
Answer: 33%

Question: And the “Percentage of viable cells, Drugs in commercial formula sodium pyruvate without SRF” value (non-cancerous cells)?
Answer: 47%

Question: What about the “Percentage of viable cells, Drugs in commercial formula with SRF” value (non-cancerous cells) of the same compound?
Answer: 98%

Question: And the “Percentage of viable cells after incubation with drugs” value (non-cancerous cells; drug)?
Answer: 31%

Question: And the “Percentage of viable cells, Drugs in commercial formula with SRF repeat study” value (non-cancerous cells; repeat study)?
Answer: 98%

Question: Which “procollagen synthesis by alpha-ketoglutarate” value ([3]; prolidase inhibitor added) does the source give for `O=C(O)[C@@H]1CCCN1C(=O)OCc1ccccc1` [Cbz-Pro, N-benzyloxycarbonyl-L-proline] here?
Answer: inhibited procollagen synthesis
